Source: patent publication US20250295661A1, “MENIN-MLL INHIBITORS FOR THE TREATMENT OF CANCER” (Syndax Pharmaceuticals, Inc., priority 2022, published 2025)

Legend:
[1] = Population PK model simulation of Compound A dosing regimens (one-compartment, first-order absorption, lag time); design: species or system human
Protocol: The rationale for these doses is based on PK data from 53 patients treated in Arm A (no strong cytochrome P450 CYP3A4 inhibitor) and Arm B (with a strong CYP3A4 inhibitor) of Study Compound A which were analyzed with a preliminary population PK model. The model was a one-compartment PK model with first-order absorption (ka) and lag time (Tlag) that described the individual PK data. The data confirmed the expected effect of a strong CYP3A4 inhibitor comedication in Arm B on the drug elimination rate (k) and apparent volume of distribution (Vz/F).
The starting dose of 163 mg TID of Compound A alone was selected because it provides Cmax, Cmin, as shown in FIGS. 2A-B, and AUC0-24 approximately half that of 163 mg q12 h with a strong CYP3A4 inhibitor, as shown in FIG. 2C; the lower exposure provides a margin of safety in case CRC patients are more sensitive to the effects of Compound A than acute myeloid leukemia patients. The dose of 276 mg TID is expected to show exposure similar to that for 163 mg q12 h with a strong CYP3A inhibitor based on 3 key PK parameters (Cmax, Cmin, and AUC0-24), as shown in FIGS. 2A-C and Table 3A.

[2] = tested on: >125 molecular targets; assay: Off-target screening assays
[3] = tested on: dogs; assay: GLP 28-day dog toxicology study / QTc in dogs; format: in vivo
[4] = tested on: rats; assay: GLP 28-day rat toxicology study; format: in vivo

Compound: CCN(C(=O)c1cc(F)ccc1Oc1cncnc1N1CC2(CCN(C[C@H]3CC[C@H](NS(=O)(=O)CC)CC3)CC2)C1)C(C)C [Compound A]
- Cmax, Cmin and AUC0-24 relative to 163 mg q12 h with a strong CYP3A4 inhibitor ([1]; 163 mg TID of Compound A alone): approximately half
- Exposure (Cmax, Cmin, AUC0-24) compared with 163 mg q12 h with a strong CYP3A inhibitor ([1]; 276 mg TID without CYP3A4 inhibitor): similar
- Cross-reactivity in off-target screening [2]: no cross-reactivity
- Potential main targeted organ of toxicity: heart ([3]; 28-day dog toxicology study): electrocardiogram [ECG] changes in dogs
- Potential main targeted organs of toxicity (other) ([3]; 28-day rat and dog toxicology studies, dog): liver, bone marrow, lymphoid tissues, male reproductive system, and female reproductive system
- QTc finding in dogs ([3]; dogs treated with Compound A): Prolonged QTc
- Potential main targeted organs of toxicity (other) ([4]; 28-day rat and dog toxicology studies, rat): liver, bone marrow, lymphoid tissues, male reproductive system, and female reproductive system
- Potential main targeted organ of toxicity: eyes ([4]; 28-day rat toxicology study): cataracts in rats only
